From PMC7933434, “Entropy-driven binding of gut bacterial β-glucuronidase inhibitors ameliorates irinotecan-induced toxicity” (Communications Biology, 2021)
Several values for one entry are separate records, joined by “and”; a condition that tells them apart may be missing. Equal entries are not always repeated.

What was measured:
[1] = target: EcGUS (Escherichia coli GUS) (Escherichia coli, UniProt P05804); assay: biochemical
[2] = target: LgGUS (Lactobacillus gasseri GUS) (Lactobacillus gasseri, UniProt Q9AHJ8); assay: GUS inhibition assay, hydrolysis of 4-methylumbelliferyl-β-glucuronide, LgGUS; format: biochemical; design: GUS activity (hydrolysis rate of MUG) / 1/v: unit not given here
Chain of LgGUS (Lactobacillus gasseri GUS) (Q9AHJ8 1-598): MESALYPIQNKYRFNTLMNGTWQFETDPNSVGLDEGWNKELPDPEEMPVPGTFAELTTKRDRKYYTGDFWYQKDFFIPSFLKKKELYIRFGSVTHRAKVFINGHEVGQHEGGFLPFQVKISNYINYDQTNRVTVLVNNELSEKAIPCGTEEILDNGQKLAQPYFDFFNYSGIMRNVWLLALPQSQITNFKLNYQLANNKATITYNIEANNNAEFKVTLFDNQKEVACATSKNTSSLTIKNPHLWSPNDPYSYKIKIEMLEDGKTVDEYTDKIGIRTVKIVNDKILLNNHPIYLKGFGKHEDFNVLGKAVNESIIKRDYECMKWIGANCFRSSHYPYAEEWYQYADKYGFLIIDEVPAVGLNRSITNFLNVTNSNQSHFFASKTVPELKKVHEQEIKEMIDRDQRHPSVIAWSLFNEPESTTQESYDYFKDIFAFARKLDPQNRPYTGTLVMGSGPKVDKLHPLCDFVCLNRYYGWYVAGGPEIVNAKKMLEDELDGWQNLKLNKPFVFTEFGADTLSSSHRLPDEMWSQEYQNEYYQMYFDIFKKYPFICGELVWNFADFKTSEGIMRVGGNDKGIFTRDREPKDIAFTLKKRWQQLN

EcGUS = EcGUS (Escherichia coli, UniProt P05804); assay: Isothermal titration calorimetry, EcGUS; format: binding; conditions: for entropy contribution to binding: sign (positive = favourable); for Kd / ΔG / ΔH / —TΔS: EcGUS, 298 K
Chain of EcGUS (P05804 whole entry): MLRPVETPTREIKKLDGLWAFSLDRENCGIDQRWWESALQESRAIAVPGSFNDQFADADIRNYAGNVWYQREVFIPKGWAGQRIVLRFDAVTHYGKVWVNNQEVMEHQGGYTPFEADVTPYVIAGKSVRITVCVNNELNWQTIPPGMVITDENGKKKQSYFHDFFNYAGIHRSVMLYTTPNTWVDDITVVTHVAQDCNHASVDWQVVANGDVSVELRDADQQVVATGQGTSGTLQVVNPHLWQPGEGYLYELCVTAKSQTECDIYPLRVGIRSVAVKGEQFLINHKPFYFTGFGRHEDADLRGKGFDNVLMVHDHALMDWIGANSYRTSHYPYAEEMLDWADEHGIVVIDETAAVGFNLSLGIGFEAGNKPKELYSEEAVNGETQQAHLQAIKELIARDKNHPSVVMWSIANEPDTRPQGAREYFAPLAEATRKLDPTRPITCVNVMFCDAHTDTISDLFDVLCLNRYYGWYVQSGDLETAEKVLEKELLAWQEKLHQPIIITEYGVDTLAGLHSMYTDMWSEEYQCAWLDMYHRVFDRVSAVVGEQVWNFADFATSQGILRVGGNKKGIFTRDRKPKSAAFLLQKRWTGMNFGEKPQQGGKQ

[3] = target: BdGUS (Bifidobacterium dentium GUS) (Bifidobacterium dentium, UniProt D2Q7B1); assay: biochemical; design: GUS activity (hydrolysis rate of MUG) / 1/v: unit not given here
Chain of BdGUS (Bifidobacterium dentium GUS) (D2Q7B1 1-668): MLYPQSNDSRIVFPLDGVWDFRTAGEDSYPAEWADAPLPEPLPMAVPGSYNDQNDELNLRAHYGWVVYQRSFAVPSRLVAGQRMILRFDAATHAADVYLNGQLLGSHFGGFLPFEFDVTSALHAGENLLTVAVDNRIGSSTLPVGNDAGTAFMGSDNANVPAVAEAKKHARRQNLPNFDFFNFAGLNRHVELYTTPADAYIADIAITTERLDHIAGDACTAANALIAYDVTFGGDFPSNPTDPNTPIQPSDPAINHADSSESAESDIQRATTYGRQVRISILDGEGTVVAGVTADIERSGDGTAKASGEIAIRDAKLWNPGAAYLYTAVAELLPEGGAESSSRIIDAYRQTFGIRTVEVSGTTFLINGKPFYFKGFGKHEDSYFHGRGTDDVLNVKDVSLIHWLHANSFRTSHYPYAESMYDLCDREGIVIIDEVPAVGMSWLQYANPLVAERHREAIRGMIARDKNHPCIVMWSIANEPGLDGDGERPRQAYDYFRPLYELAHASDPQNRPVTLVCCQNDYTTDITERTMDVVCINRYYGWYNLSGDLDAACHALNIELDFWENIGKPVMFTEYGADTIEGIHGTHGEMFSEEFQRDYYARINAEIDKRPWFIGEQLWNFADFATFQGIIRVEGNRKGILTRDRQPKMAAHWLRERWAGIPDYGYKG

[4] = [Inhibitor 2] = 10 μM, [MUG] 0.0375 mM
[5] = [Inhibitor 2] = 10 μM, [MUG] 0.075 mM
[6] = [Inhibitor 2] = 10 μM, [MUG] 0.15 mM
[7] = [Inhibitor 2] = 10 μM, [MUG] 0.3 mM
[8] = [Inhibitor 2] = 20 μM, [MUG] 0.0375 mM
[9] = [Inhibitor 2] = 20 μM, [MUG] 0.075 mM
[10] = [Inhibitor 2] = 20 μM, [MUG] 0.15 mM
[11] = [Inhibitor 2] = 20 μM, [MUG] 0.3 mM
[12] = [Inhibitor 2] = 40 μM, [MUG] 0.0375 mM
[13] = [Inhibitor 2] = 40 μM, [MUG] 0.075 mM
[14] = [Inhibitor 2] = 40 μM, [MUG] 0.15 mM
[15] = [Inhibitor 2] = 40 μM, [MUG] 0.3 mM
[16] = [Inhibitor 2] = 80 μM, [MUG] 0.0375 mM
[17] = [Inhibitor 2] = 80 μM, [MUG] 0.075 mM
[18] = [Inhibitor 2] = 80 μM, [MUG] 0.15 mM
[19] = [Inhibitor 2] = 80 μM, [MUG] 0.3 mM
[20] = Tris buffer (250 mM NaCl, 20 mM Tris, pH 8.0)
[21] = phosphate buffer (250 mM NaCl, 20 mM KH2PO4, 100 mM Na2HPO4, pH 8.0)
[22] = [Inhibitor 2] = 3.75 μM, [MUG] 0.375 mM
[23] = [Inhibitor 2] = 3.75 μM, [MUG] 0.75 mM
[24] = [Inhibitor 2] = 3.75 μM, [MUG] 1.5 mM
[25] = [Inhibitor 2] = 3.75 μM, [MUG] 3 mM
[26] = [Inhibitor 2] = 7.5 μM, [MUG] 0.375 mM
[27] = [Inhibitor 2] = 7.5 μM, [MUG] 0.75 mM
[28] = [Inhibitor 2] = 7.5 μM, [MUG] 1.5 mM

Chain of EcGUS (Escherichia coli GUS) (P05804 whole entry): as the sequence (P05804 whole entry) above

## CCC[C@@H]1NC[C@@H](O)[C@H](O)[C@H]1C(=O)O [Inhibitor 2, C6-propyl UIFG]
[1]; 50 mM HEPES pH 7.5, 37 °C
  Ki: 0.035 ± 0.009 µM
[1]; source data of Table 1, from plot of apparent Km against [inhibitor] (μM)
  Ki: 0.0352 µM
[2]; LgGUS, 50 mM sodium acetate pH 4.5, 37 °C
  Ki: 18.8 ± 3.92 µM
[2]; [4]
  1/v: 0.2959 and 0.2974 and 0.2686
  GUS activity (hydrolysis rate of MUG): 4192.53 and 4171.53 and 4614.39
[2]; [5]
  1/v: 0.2107 and 0.1906 and 0.2077
  GUS activity (hydrolysis rate of MUG): 5869.97 and 6487.03 and 5954.69
[2]; [6]
  1/v: 0.1628 and 0.149 and 0.1679
  GUS activity (hydrolysis rate of MUG): 7584.59 and 8286.19 and 7358.86
[2]; [7]
  1/v: 0.1383 and 0.1264 and 0.1356
  GUS activity (hydrolysis rate of MUG): 8920.98 and 9760.49 and 9099.17
[2]; [8]
  1/v: 0.3501 and 0.314 and 0.3449
  GUS activity (hydrolysis rate of MUG): 3549.69 and 3952.79 and 3602.4
[2]; [9]
  1/v: 0.2306 and 0.2185 and 0.2316
  GUS activity (hydrolysis rate of MUG): 5367.33 and 5663.13 and 5345.77
[2]; [10]
  1/v: 0.1785 and 0.1636 and 0.1746
  GUS activity (hydrolysis rate of MUG): 6921.34 and 7548.25 and 7076.25
[2]; [11]
  1/v: 0.1408 and 0.1323 and 0.1394
  GUS activity (hydrolysis rate of MUG): 8767.09 and 9326.73 and 8851.1
[2]; [12]
  1/v: 0.4229 and 0.3884 and 0.4078
  GUS activity (hydrolysis rate of MUG): 2945.2 and 3203.76 and 3052.97
[2]; [13]
  1/v: 0.2757 and 0.2635 and 0.2787
  GUS activity (hydrolysis rate of MUG): 4496.55 and 4702.63 and 4448.51
[2]; [14]
  1/v: 0.1987 and 0.186 and 0.1977
  GUS activity (hydrolysis rate of MUG): 6224 and 6644.75 and 6252.92
[2]; [15]
  1/v: 0.1513 and 0.1407 and 0.1527
  GUS activity (hydrolysis rate of MUG): 8157.58 and 8770.43 and 8083.43
[2]; [16]
  1/v: 0.6318 and 0.5917 and 0.6372
  GUS activity (hydrolysis rate of MUG): 1984.8 and 2116.68 and 1968.46
[2]; [17]
  1/v: 0.3742 and 0.3532 and 0.3763
  GUS activity (hydrolysis rate of MUG): 3323.3 and 3518.37 and 3305.44
[2]; [18]
  1/v: 0.2434 and 0.2308 and 0.2421
  GUS activity (hydrolysis rate of MUG): 5087.86 and 5362.93 and 5115.03
[2]; [19]
  1/v: 0.1723 and 0.1599 and 0.1688
  GUS activity (hydrolysis rate of MUG): 7171.31 and 7724.06 and 7316.31
EcGUS; EcGUS in Tris buffer
  ΔΔH1–2 (enthalpy penalty of 2 relative to 1): +6.2 kcal mol^−1
  –TΔΔS1–2 (2 relative to 1): –5.6 kcal mol^−1
  entropy contribution to binding: +7.1 kcal mol^−1
EcGUS; EcGUS in phosphate buffer
  ΔΔH1–2 (enthalpy penalty of 2 relative to 1): +5.5 kcal mol^−1
  –TΔΔS1–2 (2 relative to 1): –4.6 kcal mol^−1
  entropy contribution to binding: +5.0 kcal mol^−1
EcGUS; [20]
  Kd: 0.06 ± 0.0049 µM
  ΔG: –10.01 ± 0.58 kcal/mol
  ΔH: –2.90 ± 0.23 kcal/mol
  —TΔS: –7.11 ± 0.82 kcal/mol
EcGUS; [21]
  Kd: 0.28 ± 0.05 µM
  ΔG: –8.96 ± 0.09 kcal/mol
  ΔH: –3.99 ± 0.06 kcal/mol
  —TΔS: –4.97 ± 0.15 kcal/mol
[3]; BdGUS, 50 mM HEPES pH 7.5, 37 °C
  Ki: 4.9 ± 1.2 µM
[3]; [22]
  1/v: 0.7586 and 0.7898 and 0.7689
  GUS activity (hydrolysis rate of MUG): 0.2944 and 0.2827 and 0.2904
[3]; [23]
  1/v: 0.5053 and 0.4969 and 0.4765
  GUS activity (hydrolysis rate of MUG): 0.4419 and 0.4494 and 0.4686
[3]; [24]
  1/v: 0.3454 and 0.3517 and 0.3523
  GUS activity (hydrolysis rate of MUG): 0.6465 and 0.6349 and 0.6338
[3]; [25]
  1/v: 0.3078 and 0.2975 and 0.297
  GUS activity (hydrolysis rate of MUG): 0.7254 and 0.7507 and 0.7517
[3]; [26]
  1/v: 0.9443 and 1.067 and 1.0389
  GUS activity (hydrolysis rate of MUG): 0.2365 and 0.2092 and 0.2149
[3]; [27]
  1/v: 0.6301 and 0.6229 and 0.6281
  GUS activity (hydrolysis rate of MUG): 0.3544 and 0.3585 and 0.3555
[3]; [28]
  1/v: 0.4203 and 0.4167 and 0.4011
  GUS activity (hydrolysis rate of MUG): 0.5313 and 0.5358 and 0.5568
[3]; [Inhibitor 2] = 7.5 μM, [MUG] 3 mM
  1/v: 0.3397 and 0.3356 and 0.3208
